Read-outs that look alike come from different tables or passages of the source.
Tests used:
[1] = test system: patients with type 2 diabetes; details: human, in vivo; for patients who had adverse events: 24 weeks
From the text: Laboratory results were then reviewed for these particular patients to determine which patients actually had clinically important changes in a given laboratory parameter.

patients with T2DM = details: cited from earlier work
[2] = monotherapy, 100 or 200 mg daily

| Compound | patients who had adverse events [1] | weight gain (patients with T2DM; 24-week monotherapy studies) | patients achieving a HbA1C of <7% (patients with T2DM; 24-week, background pioglitazone (30 or 45 mg daily)) | mean HbA1C reduction (patients with T2DM; 24-week, sitagliptin 100 mg daily add-on to pioglitazone (30 or 45 mg daily), mean baseline HbA1C 8.1%) | HbA1C (patients with T2DM; [2]) | hypoglycemia (patients with T2DM; [2]) | fasting and postprandial glycaemia (patients with T2DM; monotherapy) | mean placebo-subtracted reduction in HbA1C (patients with T2DM; sitagliptin 100 mg daily added to at least 1,500 mg per day of metformin) | patients achieving a HbA1C of <7% (patients with T2DM; sitagliptin 100 mg daily added to at least 1,500 mg per day of metformin, mean baseline HbA1C 8%) | clinically important decreases in any hematological parameter attributable to drug [1] | responsibility for clinically meaningful elevations in ALT and AST [1] |
| --- | --- | --- | --- | --- | --- | --- | --- | --- | --- | --- | --- |
| CN(C)C(=N)N=C(N)N [metformin] | 10% |  |  |  |  |  |  |  |  |  |  |
| N[C@@H](CC(=O)N1CCn2c(nnc2C(F)(F)F)C1)Cc1cc(F)c(F)cc1F [sitagliptin, Sitagliptin] | 8% | no significant weight gain | 45.4% | 0.7% | significantly reduced | no significant increase in hypoglycemia | reduced both fasting and postprandial glycaemia | 0.65% | 47% | no patient experienced clinically important decreases | not responsible for the variations |

Source: patent publication US20080064701A1, “Anti-diabetic combinations” (priority 2007, published 2008)
